Test system: Hs578T complex spheroid growth, percent test/control
Assay: Anticancer human tumor Hs578T cell line growth inhibition [AhR];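 note: luminescent viability signal as a proxy for spheroid growth; spheroids exposed to agents for one week after three days of growth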
Settings: for IC50: curve of first compound; for viability, T/C: stronger effect = lower value
Method in brief: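 Complex tumor spheroids co-cultured with HUVEC and human MSC stroma; AhR antagonists tested in combination with standard-of-care and investigational agents. Top concentration at or near clinical Cmax (else 10 microM), half-log dilutions; growth expressed as percent test/control.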

[1] = second compound 0.1 µM, first compound 0.0316 µM
[2] = second compound 0.1 µM, first compound 0.1 µM
[3] = second compound 0.1 µM, first compound 0.316 µM
[4] = second compound 0.1 µM, first compound 1 µM
[5] = second compound 0.1 µM, first compound 3.16 µM
[6] = second compound 0.1 µM, first compound 10 µM
[7] = second compound 0.316 µM, first compound 0.0316 µM
[8] = second compound 0.316 µM, first compound 0.1 µM
[9] = second compound 0.316 µM, first compound 0.316 µM
[10] = second compound 0.316 µM, first compound 1 µM
[11] = second compound 0.316 µM, first compound 3.16 µM
[12] = second compound 0.316 µM, first compound 10 µM
[13] = second compound 1 µM, first compound 0.0316 µM
[14] = second compound 1 µM, first compound 0.1 µM
[15] = second compound 1 µM, first compound 0.316 µM
[16] = second compound 1 µM, first compound 1 µM
[17] = second compound 1 µM, first compound 3.16 µM
[18] = second compound 1 µM, first compound 10 µM
[19] = second compound 3.16 µM, first compound 0.0316 µM
[20] = second compound 3.16 µM, first compound 0.1 µM
[21] = second compound 3.16 µM, first compound 0.316 µM
[22] = second compound 3.16 µM, first compound 1 µM
[23] = second compound 3.16 µM, first compound 3.16 µM
[24] = second compound 3.16 µM, first compound 10 µM
[25] = second compound 10 µM, first compound 0.0316 µM
[26] = second compound 10 µM, first compound 0.1 µM
[27] = second compound 10 µM, first compound 0.316 µM
[28] = second compound 10 µM, first compound 1 µM
[29] = second compound 10 µM, first compound 3.16 µM
[30] = second compound 10 µM, first compound 10 µM

In the case of CC(C)CC(NC(=O)C(Cc1ccccc1)NC(=O)c1cnccn1)B(O)O (stereo not given) + Cc1ccccc1N=Nc1ccc(NC(=O)c2ccnn2C)c(C)c1, the IC50 (second compound 0.1 µM) is reported as 5.01 nM, the IC50 (second compound 0.316 µM) is reported as 4.98 nM and the IC50 (second compound 1 µM) is reported as 5.47 nM. The IC50 (second compound 3.16 µM) was 4.53 nM, the IC50 (second compound 10 µM) was 3.14 nM and the viability, T/C (second compound 0.1 µM, first compound 0.000949 µM) was 107%. The viability, T/C (second compound 0.1 µM, first compound 0.003 µM) was 80.8%, the viability, T/C (second compound 0.1 µM, first compound 0.00949 µM) was 11.7% and the viability, T/C (second compound 0.1 µM, first compound 0.03 µM) was 0.3%. It also gave a viability, T/C (second compound 0.1 µM, first compound 0.0949 µM) of 0.81%, a viability, T/C (second compound 0.1 µM, first compound 0.3 µM) of 0.36% and a viability, T/C (second compound 0.316 µM, first compound 0.000949 µM) of 94.6%. It also gave a viability, T/C (second compound 0.316 µM, first compound 0.003 µM) of 78.1%, a viability, T/C (second compound 0.316 µM, first compound 0.00949 µM) of 14.1% and a viability, T/C (second compound 0.316 µM, first compound 0.03 µM) of 0.31%. It also gave a viability, T/C (second compound 0.316 µM, first compound 0.0949 µM) of 0.28%, a viability, T/C (second compound 0.316 µM, first compound 0.3 µM) of 0.33% and a viability, T/C (second compound 1 µM, first compound 0.000949 µM) of 98.2%. For the same compound, the viability, T/C (second compound 1 µM, first compound 0.003 µM) was 86.1%, the viability, T/C (second compound 1 µM, first compound 0.00949 µM) was 16.9% and the viability, T/C (second compound 1 µM, first compound 0.03 µM) was 0.65%. For the same compound, the viability, T/C (second compound 1 µM, first compound 0.0949 µM) was 0.44%, the viability, T/C (second compound 1 µM, first compound 0.3 µM) was 1.31% and the viability, T/C (second compound 3.16 µM, first compound 0.000949 µM) was 88.6%. The viability, T/C (second compound 3.16 µM, first compound 0.003 µM) was 68.7%, the viability, T/C (second compound 3.16 µM, first compound 0.00949 µM) was 16.6% and the viability, T/C (second compound 3.16 µM, first compound 0.03 µM) was 0.34%. It also gave a viability, T/C (second compound 3.16 µM, first compound 0.0949 µM) of 0.39%, a viability, T/C (second compound 3.16 µM, first compound 0.3 µM) of 0.32% and a viability, T/C (second compound 10 µM, first compound 0.000949 µM) of 62.1%. The viability, T/C (second compound 10 µM, first compound 0.003 µM) was 51.2%, the viability, T/C (second compound 10 µM, first compound 0.00949 µM) was 16.6% and the viability, T/C (second compound 10 µM, first compound 0.03 µM) was 0.45%. For the same compound, the viability, T/C (second compound 10 µM, first compound 0.0949 µM) was 0.83% and the viability, T/C (second compound 10 µM, first compound 0.3 µM) was 0.53%.

In the case of COc1cc(Nc2ncc3c(n2)-c2ccc(Cl)cc2C(c2c(F)cccc2OC)=NC3)ccc1C(=O)O + Cc1ccccc1N=Nc1ccc(NC(=O)c2ccnn2C)c(C)c1, the IC50 (second compound 0.1 µM) is reported as 6120 nM, the IC50 (second compound 0.316 µM) is reported as 6760 nM and the IC50 (second compound 1 µM) is reported as 7910 nM. The IC50 (second compound 3.16 µM) was over 10000 nM, the IC50 (second compound 10 µM) was 5670 nM and the viability, T/C [1] was 88.2%. For the same compound, the viability, T/C [2] was 91.4%, the viability, T/C [3] was 78% and the viability, T/C [4] was 77.5%. The viability, T/C [5] was 71.9%, the viability, T/C [6] was 35.4% and the viability, T/C [7] was 85%. It also gave a viability, T/C [8] of 81.7%, a viability, T/C [9] of 91.8% and a viability, T/C [10] of 79.4%. For the same compound, the viability, T/C [11] was 67.9%, the viability, T/C [12] was 40.9% and the viability, T/C [13] was 86%. For the same compound, the viability, T/C [14] was 75%, the viability, T/C [15] was 92.9% and the viability, T/C [16] was 82.3%. For the same compound, the viability, T/C [17] was 73.2%, the viability, T/C [18] was 44% and the viability, T/C [19] was 71.5%. For the same compound, the viability, T/C [20] was 83.1%, the viability, T/C [21] was 85.1% and the viability, T/C [22] was 73.8%. For the same compound, the viability, T/C [23] was 66.7%, the viability, T/C [24] was 50.1% and the viability, T/C [25] was 68.4%. It also gave a viability, T/C [26] of 64.2%, a viability, T/C [27] of 68.3% and a viability, T/C [28] of 63.9%. For the same compound, the viability, T/C [29] was 62.5% and the viability, T/C [30] was 38.2%.

O=C(C=Cc1cccc(S(=O)(=O)Nc2ccccc2)c1)NO + Cc1ccccc1N=Nc1ccc(NC(=O)c2ccnn2C)c(C)c1 gave an IC50 (second compound 0.1 µM) of 1850 nM, an IC50 (second compound 0.316 µM) of 1780 nM and an IC50 (second compound 1 µM) of 1860 nM. It also gave an IC50 (second compound 3.16 µM) of 1770 nM, an IC50 (second compound 10 µM) of 1500 nM and a viability, T/C [1] of 99%. The viability, T/C [2] was 107%, the viability, T/C [3] was 94% and the viability, T/C [4] was 77.5%. For the same compound, the viability, T/C [5] was 26.2%, the viability, T/C [6] was 0.74% and the viability, T/C [7] was 105%. The viability, T/C [8] was 108%, the viability, T/C [9] was 94% and the viability, T/C [10] was 74%. The viability, T/C [11] was 26.9%, the viability, T/C [12] was 0.66% and the viability, T/C [13] was 109%. The viability, T/C [14] was 104%, the viability, T/C [15] was 96.5% and the viability, T/C [16] was 77.6%. It also gave a viability, T/C [17] of 26.9%, a viability, T/C [18] of 0.82% and a viability, T/C [19] of 93.5%. The viability, T/C [20] was 87.2%, the viability, T/C [21] was 98.5% and the viability, T/C [22] was 71.9%. It also gave a viability, T/C [23] of 26.3%, a viability, T/C [24] of 1.13% and a viability, T/C [25] of 64.2%. The viability, T/C [26] was 67.2%, the viability, T/C [27] was 64% and the viability, T/C [28] was 63.2%. For the same compound, the viability, T/C [29] was 25.9% and the viability, T/C [30] was 1.32%.
